Results on 17 compounds are retold here after ChEMBL document CHEMBL1140822, “Prodrug thiamine analogs as inhibitors of the enzyme transketolase” (Bioorg Med Chem Lett, 2008).

Structures are written as SMILES. Calls of active or inactive are those of the source. The rule behind the calls is not given here.

By EC50 is commonly meant the midpoint of the concentration-response curve. The clearance is the volume of plasma or blood freed of the substance per unit of time. A higher clearance goes with efficient removal. As usually defined, the MRT is a mean duration of stay, worked out from the concentration-time curve. One may read the Cmax as the peak of the concentration-time curve. As usually defined, the AUC is concentration integrated over time. A low value points to low exposure.

One data set concerns the target T1, Transketolase (Homo sapiens, UniProt P29401).
T1 sequence (P29401 whole entry): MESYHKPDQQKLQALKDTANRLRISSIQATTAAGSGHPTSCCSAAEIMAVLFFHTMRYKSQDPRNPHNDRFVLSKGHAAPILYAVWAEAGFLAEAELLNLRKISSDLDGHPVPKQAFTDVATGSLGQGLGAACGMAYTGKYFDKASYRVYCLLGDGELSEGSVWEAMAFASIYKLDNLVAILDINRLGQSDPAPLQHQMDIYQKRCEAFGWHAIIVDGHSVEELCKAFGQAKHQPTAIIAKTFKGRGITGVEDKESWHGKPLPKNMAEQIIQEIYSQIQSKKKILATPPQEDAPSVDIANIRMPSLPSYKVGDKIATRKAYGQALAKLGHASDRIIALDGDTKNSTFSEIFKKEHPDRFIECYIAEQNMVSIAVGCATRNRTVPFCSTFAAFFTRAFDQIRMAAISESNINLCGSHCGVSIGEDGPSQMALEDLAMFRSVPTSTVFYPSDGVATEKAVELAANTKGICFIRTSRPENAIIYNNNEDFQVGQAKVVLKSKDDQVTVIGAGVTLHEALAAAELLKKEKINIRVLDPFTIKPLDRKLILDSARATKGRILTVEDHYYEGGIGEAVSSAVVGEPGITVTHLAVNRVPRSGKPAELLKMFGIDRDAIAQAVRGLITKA
In words: Inhibition of transketolase in human HCT116 cells. It is filed as cell-based, HCT-116.

A short description of data set [1]: Clearance in rat at 3 mg/kg, iv. The class given is ADME, organism-based. Also on record: dose 3 mg/kg, route intravenous. As to conditions: in vivo.
Data set [2] can be described thus: Volume of distribution at steady state in rat at 3 mg/kg, iv. It is filed as ADME, organism-based. Details: dose 3 mg/kg, route intravenous. As to conditions: in vivo, read-out: Vdss.
Data set [3] is described as follows: Mean residence time in rat at 3 mg/kg, iv. It is filed as ADME, organism-based. Details: dose 3 mg/kg, route intravenous. As to conditions: in vivo.
Data set [4] in a line: Cmax in rat at 3 mg/kg, iv. The class given is ADME, organism-based. Details: dose 3 mg/kg, route intravenous. As to conditions: in vivo.
Data set [5] can be described thus: AUC in rat at 3 mg/kg, iv. The class given is ADME, organism-based. Also on record: dose 3 mg/kg, route intravenous. As to conditions: plasma.
Another data set relates to Mus musculus. In words: Inhibition of transketolase in BALB/c mouse blood at 100 mg/kg, ip after 72 hrs. The class given is functional, organism-based. Details: dose 100 mg/kg.

In turn, `Cc1c(CCO)sc[n+]1Cc1ccc(Cl)nc1N` gave an EC50 on Transketolase of 9 nM.

In turn, `Cc1ccc(C[n+]2csc(CCO)c2C)c(N)n1.[Cl-]` registered a clearance in data set [1] of 41.3 mL/min/kg. Also, in data set [2], the Vd was 1.98 L/kg. This compound yielded an MRT in data set [3] of 0.72 h. This compound yielded a Cmax in data set [4] of 6610 ng/mL. Moreover, the AUC in data set [5] was 1250 ng·h/mL. Also, the EC50 on Transketolase is 18 nM.

`C/C(=C(\CCO)SSCCO)N(C=O)Cc1ccc(C)nc1N` yielded an EC50 on Transketolase of 13 nM. On Transketolase, `C/C(=C(\CCOC(=O)c1ccccc1)SC(=O)c1ccccc1)N(C=O)Cc1ccc(C)nc1N` returned an EC50 of 28 nM. For the compound `C/C(=C(\CCO)SCOC(=O)C(C)(C)C)N(C=O)Cc1ccc(C)nc1N`, in data set [1], the clearance came to 0.63 mL/min/kg. In addition, the Vd in data set [2] came out at 1.83 L/kg. In addition, in data set [3], the MRT stood at 48.3 h. Moreover, the Cmax in data set [4] turned out to be 3020 ng/mL. In data set [5], the AUC is 79200 ng·h/mL. Further, on Transketolase, the response was half-maximal at 116 nM (EC50). Take `C/C(=C(\CCO)SS/C(CCO)=C(/C)N(C=O)Cc1cccnc1N)N(C=O)Cc1cccnc1N`: on Transketolase, the EC50 was 479 nM. In turn, `C/C(=C(\CCO)SSCCC(=O)O)N(C=O)Cc1ccc(C)nc1N` returned an EC50 on Transketolase of 52 nM.

The compound `C/C(=C(\CCO)SS/C(CCO)=C(/C)N(C=O)Cc1ccc(Cl)nc1N)N(C=O)Cc1ccc(Cl)nc1N` gave an EC50 at Transketolase of 8 nM.

With `CC(=O)OCC/C(SC(C)=O)=C(\C)N(C=O)Cc1ccc(C)nc1N`, at Transketolase, the response was half-maximal at 8 nM (EC50). On to `Cc1ccc(C[n+]2c(C)sc(CCO)c2C)c(N)n1`, for which the midpoint of the response on Transketolase, the EC50, lay at 28 nM.

In turn, `Cc1ccc(CN(C=O)/C=C(/CCO)SS/C(=C\N(C=O)Cc2ccc(C)nc2N)CCO)c(N)n1` returned an EC50 on Transketolase of 102000 nM.

In turn, `Cc1c(CCO)sc[n+]1Cc1cccnc1N` displayed an EC50 on Transketolase of 110 nM.

On Transketolase, `Cc1ccc(C[n+]2csc(CCO)c2)c(N)n1` returned an EC50 of 9540 nM. For `C/C(=C(\CCO)SS/C(CCO)=C(/C)N(C=O)Cc1ccc(C)nc1N)N(C=O)Cc1ccc(C)nc1N`, the clearance in data set [1] was 32.5 mL/min/kg. In data set [2], the Vd was determined as 19.3 L/kg. Further, the outcome in the data set with Mus musculus was Active. Further, in data set [3], the MRT is 12.7 h. The same compound gave a Cmax in data set [4] of 1120 ng/mL. The same compound displayed an AUC in data set [5] of 1590 ng·h/mL. The compound further gave an EC50 at Transketolase of 12 nM. `C/C(=C1\CCOC(=O)S1)N(C=O)Cc1ccc(C)nc1N` displayed an EC50 at Transketolase of 15 nM. For `CCCCS/C(CCO)=C(/C)N(C=O)Cc1ccc(C)nc1N`, at Transketolase, the response was half-maximal at 6000 nM (EC50). `CC(=O)N(Cc1ccc(C)nc1N)/C(C)=C(/CCO)SS/C(CCO)=C(/C)N(Cc1ccc(C)nc1N)C(C)=O` returned an EC50 at Transketolase of 32 nM.
